Results from patent US11053213B2, “Pharmaceutical compounds” (ALMAC DISCOVERY LIMITED, priority 2016, dated 2021).

Each compound was assayed against USP19 (Homo sapiens (Human), UniProt O94966) (assay: USP19 activity assay (fluorescence polarisation, Ubiquitin-Lys-TAMRA substrate)). Details: full-length USP19 2.5 nM, 30 min pre-incubation, Ub substrate 500 nM; average of at least two duplicate experiments.
Type: biochemical

Chain of USP19 (O94966 whole entry): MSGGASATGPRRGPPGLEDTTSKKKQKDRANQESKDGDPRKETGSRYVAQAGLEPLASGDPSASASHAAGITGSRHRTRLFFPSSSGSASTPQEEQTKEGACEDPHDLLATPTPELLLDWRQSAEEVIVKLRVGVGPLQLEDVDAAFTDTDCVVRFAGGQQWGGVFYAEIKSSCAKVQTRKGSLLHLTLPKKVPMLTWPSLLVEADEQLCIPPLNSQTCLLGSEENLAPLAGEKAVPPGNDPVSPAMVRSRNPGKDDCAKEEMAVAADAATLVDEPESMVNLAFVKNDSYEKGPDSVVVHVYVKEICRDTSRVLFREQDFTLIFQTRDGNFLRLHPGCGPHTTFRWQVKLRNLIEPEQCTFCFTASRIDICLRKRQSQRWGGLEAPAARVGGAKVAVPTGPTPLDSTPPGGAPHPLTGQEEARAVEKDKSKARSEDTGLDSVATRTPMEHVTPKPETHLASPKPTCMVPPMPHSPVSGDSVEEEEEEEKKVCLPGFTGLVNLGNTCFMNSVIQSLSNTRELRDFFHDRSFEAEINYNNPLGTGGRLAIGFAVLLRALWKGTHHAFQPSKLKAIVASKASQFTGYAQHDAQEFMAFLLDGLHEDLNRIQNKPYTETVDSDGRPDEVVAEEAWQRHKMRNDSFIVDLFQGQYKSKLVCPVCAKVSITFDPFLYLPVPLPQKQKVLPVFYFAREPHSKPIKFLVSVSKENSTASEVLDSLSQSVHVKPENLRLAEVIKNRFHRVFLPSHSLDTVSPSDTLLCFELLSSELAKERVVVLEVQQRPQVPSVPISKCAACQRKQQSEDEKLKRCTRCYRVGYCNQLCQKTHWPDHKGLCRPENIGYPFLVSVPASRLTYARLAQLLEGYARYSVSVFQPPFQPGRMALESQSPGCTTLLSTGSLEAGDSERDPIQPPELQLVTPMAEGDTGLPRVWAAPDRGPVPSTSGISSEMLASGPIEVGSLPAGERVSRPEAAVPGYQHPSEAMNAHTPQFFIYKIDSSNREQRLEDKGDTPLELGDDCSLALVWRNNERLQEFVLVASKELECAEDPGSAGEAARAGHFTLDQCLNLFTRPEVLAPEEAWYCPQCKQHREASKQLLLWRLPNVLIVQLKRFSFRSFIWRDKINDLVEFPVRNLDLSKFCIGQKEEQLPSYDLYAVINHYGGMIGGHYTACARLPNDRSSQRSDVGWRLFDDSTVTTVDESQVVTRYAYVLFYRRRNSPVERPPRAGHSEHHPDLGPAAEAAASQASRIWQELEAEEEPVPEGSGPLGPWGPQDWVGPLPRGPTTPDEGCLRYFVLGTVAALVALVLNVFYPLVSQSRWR

Row | Compound | IC50 [µM]
1 | C[C@H](CC1CCCCC1)C(=O)N1CCC(O)(Cn2cc(C(=O)N(C)C)ccc2=O)C2(CCCC2)C1 (stereo partly drawn) [Example 127, 1-((7-((R)-3-Cyclohexyl-2-methylpropanoyl)-10-hydroxy-7-azaspiro[4.5]decan-10-yl)methyl)-N,N-dimethyl-6-oxo-1,6-dihydropyridine-3-carboxamide] | 0.5 to 5
2 | C[C@H](CC1CCC1)C(=O)N1CCC(O)(Cn2cc(C(=O)N(C)C)c(-c3ccccc3)cc2=O)C(C)(C)C1 (stereo partly drawn) [Example 128, 1-((1-((R)-3-Cyclobutyl-2-methylpropanoyl)-4-hydroxy-3,3-dimethylpiperidin-4-yl)methyl)-N,N-dimethyl-6-oxo-4-phenyl-1,6-dihydropyridine-3-carboxamide] | 0.5 to 5
3 | C[C@H](CC1CC1)C(=O)N1CCC(O)(Cn2cc(C(=O)N(C)C)c(-c3ccccc3)cc2=O)C(C)(C)C1 (stereo partly drawn) [Example 129, 1-((1-((R)-3-Cyclopropyl-2-methylpropanoyl)-4-hydroxy-3,3-dimethylpiperidin-4-yl)methyl)-N,N-dimethyl-6-oxo-4-phenyl-1,6-dihydropyridine-3-carboxamide] | 5 to 50
4 | C[C@H](CC1CCCCC1)C(=O)N1CCC(O)(Cn2cnc(-c3cncnc3)cc2=O)C(C)(C)C1 (stereo partly drawn) [Example 130, 1-((1-((R)-3-Cyclohexyl-2-methylpropanoyl)-4-hydroxy-3,3-dimethylpiperidin-4-yl)methyl)-[4,5′-bipyrimidin]-6(1H)-one] | 0.5 to 5
5 | C[C@H](CC1CCCCC1)C(=O)N1CCC(O)(Cn2cnc(-c3ccnn3C)cc2=O)C(C)(C)C1 (stereo partly drawn) [Example 131, 3-((1-((R)-3-Cyclohexyl-2-methylpropanoyl)-4-hydroxy-3,3-dimethylpiperidin-4-yl)methyl)-6-(1-methyl-1H-pyrazol-5-yl)pyrimidin-4(3H)-one] | 0.5 to 5
6 | C[C@H](CC1CCCCC1)C(=O)N1CCC(O)(Cn2cnc(-c3cn[nH]c3)cc2=O)C(C)(C)C1 (stereo partly drawn) [Example 132, 3-((1-((R)-3-Cyclohexyl-2-methylpropanoyl)-4-hydroxy-3,3-dimethylpiperidin-4-yl)methyl)-6-(1H-pyrazol-4-yl)pyrimidin-4(3H)-one] | 5 to 50
7 | C[C@H](CC1CCCCC1)C(=O)N1CCC(O)(Cn2cnc(-c3ccn[nH]3)cc2=O)C(C)(C)C1 (stereo partly drawn) [Example 133, 3-((1-((R)-3-Cyclohexyl-2-methylpropanoyl)-4-hydroxy-3,3-dimethylpiperidin-4-yl)methyl)-6-(1H-pyrazol-5-yl)pyrimidin-4(3H)-one] | 0.5 to 5
8 | C[C@H](CC1CCCCC1)C(=O)N1CCC(O)(Cn2cnccc2=O)C2(CCCC2)C1 (stereo partly drawn) [Example 134, 3-((7-((R)-3-Cyclohexyl-2-methylpropanoyl)-10-hydroxy-7-azaspiro[4.5]decan-10-yl)methyl)pyrimidin-4(3H)-one] | 5 to 50
9 | C[C@H](CC1CCCCC1)C(=O)N1CCC(O)(Cn2cnc(-c3ccsc3)cc2=O)C(C)(C)C1 (stereo partly drawn) [Example 135, 3-((1-((R)-3-Cyclohexyl-2-methylpropanoyl)-4-hydroxy-3,3-dimethylpiperidin-4-yl)methyl)-6-(thiophen-3-yl)pyrimidin-4(3H)-one] | < 0.5
10 | C[C@H](CC1CCCCC1)C(=O)N1CCC(O)(Cn2cc(-c3ncco3)c(-c3ccccc3)cc2=O)C(C)(C)C1 (stereo partly drawn) [Example 136, 1-((1-((R)-3-Cyclohexyl-2-methylpropanoyl)-4-hydroxy-3,3-dimethylpiperidin-4-yl)methyl)-5-(oxazol-2-yl)-4-phenylpyridin-2(1H)-one] | 0.5 to 5
11 | C[C@H](CC1CCCCC1)C(=O)N1CCC(O)(Cn2cnc(-c3ccccc3CO)cc2=O)C(C)(C)C1 (stereo partly drawn) [Example 137, 3-((1-((R)-3-Cyclohexyl-2-methylpropanoyl)-4-hydroxy-3,3-dimethylpiperidin-4-yl)methyl)-6-(2-(hydroxymethyl)phenyl)pyrimidin-4(3H)-one] | 0.5 to 5
12 | C[C@H](CC1CCCCC1)C(=O)N1CCC(O)(Cn2cnc(-c3cccc(CO)c3)cc2=O)C(C)(C)C1 (stereo partly drawn) [Example 138, 3-((1-((R)-3-Cyclohexyl-2-methylpropanoyl)-4-hydroxy-3,3-dimethylpiperidin-4-yl)methyl)-6-(3-(hydroxymethyl)phenyl)pyrimidin-4(3H)-one] | < 0.5
13 | C[C@H](CC1CCCCC1)C(=O)N1CCC(O)(Cn2cnc(-c3ccc(CO)cc3)cc2=O)C(C)(C)C1 (stereo partly drawn) [Example 139, 3-((1-((R)-3-Cyclohexyl-2-methylpropanoyl)-4-hydroxy-3,3-dimethylpiperidin-4-yl)methyl)-6-(4-(hydroxymethyl)phenyl)pyrimidin-4(3H)-one] | < 0.5
14 | C[C@H](CC1CCCCC1)C(=O)N1CCC(O)(Cn2cnc(-c3ccc(CN)cc3)cc2=O)C(C)(C)C1 (stereo partly drawn) [Example 140, 6-(4-(Aminomethyl)phenyl)-3-((1-((R)-3-cyclohexyl-2-methylpropanoyl)-4-hydroxy-3,3-dimethylpiperidin-4-yl)methyl)pyrimidin-4(3H)-one] | 0.5 to 5
15 | C[C@H](CC1CCCCC1)C(=O)N1CCC(O)(Cn2cnc(-c3ccccc3CN)cc2=O)C(C)(C)C1 (stereo partly drawn) [Example 141, 6-(2-(Aminomethyl)phenyl)-3-((1-((R)-3-cyclohexyl-2-methylpropanoyl)-4-hydroxy-3,3-dimethylpiperidin-4-yl)methyl)pyrimidin-4(3H)-one] | < 0.5
16 | CC(CC(C)(C)C)C(=O)N1CCC(O)(Cn2cnc(-c3ccccc3F)cc2=O)C(C)(C)C1 (stereo not shown) [Example 142, 6-(2-Fluorophenyl)-3-((4-hydroxy-3,3-dimethyl-1-(2,4,4-trimethylpentanoyl)piperidin-4-yl)methyl)pyrimidin-4(3H)-one] | 50 to 250
17 | CC(CC(F)(F)F)C(=O)N1CCC(O)(Cn2cnc(-c3ccccc3F)cc2=O)C(C)(C)C1 (stereo not shown) [Example 143, 6-(2-Fluorophenyl)-3-((4-hydroxy-3,3-dimethyl-1-(4,4,4-trifluoro-2-methylbutanoyl)piperidin-4-yl)methyl)pyrimidin-4(3H)-one] | 5 to 50
18 | C[C@H](CC1CCCCC1)C(=O)N1CCC(O)(Cn2cc(C(=O)N(C)C)c(Cl)cc2=O)C2(CCCC2)C1 (stereo partly drawn) [Example 144, 4-chloro-1-((7-((R)-3-cyclohexyl-2-methylpropanoyl)-10-hydroxy-7-azaspiro[4.5]decan-10-yl)methyl)-N,N-dimethyl-6-oxo-1,6-dihydropyridine-3-carboxamide] | < 0.5
19 | C[C@H](CC1CCCCC1)C(=O)N1CCC(O)(Cn2cc(C(=O)N(C)C)c(N(C)C)cc2=O)C2(CCCC2)C1 (stereo partly drawn) [Example 145, 1-((7-((R)-3-Cyclohexyl-2-methylpropanoyl)-10-hydroxy-7-azaspiro[4.5]decan-10-yl)methyl)-4-(dimethylamino)-N,N-dimethyl-6-oxo-1,6-dihydropyridine-3-carboxamide] | < 0.5
20 | CN(C)C(=O)c1cn(CC2(O)CCN(C(=O)[C@H](COCc3ccccc3)CC3CCCCC3)CC2(C)C)c(=O)cc1-c1ccccc1 (stereo partly drawn) [Example 146, 1-((1-((S)-3-(Benzyloxy)-2-(cyclohexylmethyl)propanoyl)-4-hydroxy-3,3-dimethylpiperidin-4-yl)methyl)-N,N-dimethyl-6-oxo-4-phenyl-1,6-dihydropyridine-3-carboxamide] | 0.5 to 5
21 | CC(C)C(=O)N1CCC(O)(Cn2cc(C(=O)N(C)C)c(-c3ccccc3)cc2=O)C2(CCCC2)C1 (stereo not shown) [Example 147, 1-((10-Hydroxy-7-isobutyryl-7-azaspiro[4.5]decan-10-yl)methyl)-N,N-dimethyl-6-oxo-4-phenyl-1,6-dihydropyridine-3-carboxamide] | 50 to 250
22 | CC[C@@H](C)C(=O)N1CCC(O)(Cn2cc(C(=O)N(C)C)c(-c3ccccc3)cc2=O)C2(CCCC2)C1 (stereo partly drawn) [Example 148, 1-((10-Hydroxy-7-((R)-2-methylbutanoyl)-7-azaspiro[4.5]decan-10-yl)methyl)-N,N-dimethyl-6-oxo-4-phenyl-1,6-dihydropyridine-3-carboxamide] | 5 to 50
23 | C[C@H](CC1CC1)C(=O)N1CCC(O)(Cn2cc(C(=O)N(C)C)c(-c3ccccc3)cc2=O)C2(CCCC2)C1 (stereo partly drawn) [Example 149, 1-((7-((R)-3-Cyclopropyl-2-methylpropanoyl)-10-hydroxy-7-azaspiro[4.5]decan-10-yl)methyl)-N,N-dimethyl-6-oxo-4-phenyl-1,6-dihydropyridine-3-carboxamide] | < 0.5
24 | CC(Cn1cccn1)C(=O)N1CCC(O)(Cn2cnc(-c3ccccc3F)cc2=O)C(C)(C)C1 (stereo not shown) [Example 150, 6-(2-Fluorophenyl)-3-((4-hydroxy-3,3-dimethyl-1-(2-methyl-3-(1H-pyrazol-1-yl)propanoyl)piperidin-4-yl)methyl)pyrimidin-4(3H)-one] | 50 to 250
25 | C[C@H](CC1CCCCC1)C(=O)N1CCC(O)(Cn2cc(C(=O)N(C)C)c(-c3ccccc3CO)cc2=O)C2(CCCC2)C1 (stereo partly drawn) [Example 151, 1-((7-((R)-3-Cyclohexyl-2-methylpropanoyl)-10-hydroxy-7-azaspiro[4.5]decan-10-yl)methyl)-4-(2-(hydroxymethyl)phenyl)-N,N-dimethyl-6-oxo-1,6-dihydropyridine-3-carboxamide] | 5 to 50
26 | CN(C)C(=O)c1cn(C[C@]2(O)CCN(C(=O)[C@H](CO)CC3CCCCC3)CC2(C)C)c(=O)cc1-c1ccccc1 [Example 152, 1-(((S)-1-((S)-3-Cyclohexyl-2-(hydroxymethyl)propanoyl)-4-hydroxy-3,3-dimethylpiperidin-4-yl)methyl)-N,N-dimethyl-6-oxo-4-phenyl-1,6-dihydropyridine-3-carboxamide] | < 0.5
27 | C[C@H](CC1CCCCC1)C(=O)N1CCC(O)(Cn2cc(-c3ccccn3)c(-c3ccccc3F)cc2=O)C(C)(C)C1 (stereo partly drawn) [Example 154, 1′-((1-((R)-3-Cyclohexyl-2-methylpropanoyl)-4-hydroxy-3,3-dimethylpiperidin-4-yl)methyl)-4′-(2-fluorophenyl)-[2,3′-bipyridin]-6′(1′H)-one] | 5 to 50
28 | C[C@H](CC1CCCCC1)C(=O)N1CCC(O)(Cn2cc(C(=O)N(C)C)c(-c3ccsc3)cc2=O)C2(CCCC2)C1 (stereo partly drawn) [Example 155, 1-((7-((R)-3-Cyclohexyl-2-methylpropanoyl)-10-hydroxy-7-azaspiro[4.5]decan-10-yl)methyl)-N,N-dimethyl-6-oxo-4-(thiophen-3-yl)-1,6-dihydropyridine-3-carboxamide] | < 0.5
